# Laboratory results taken from US10758534B2 (Vertex Pharmaceuticals Incorporated, priority 2014, dated 2020).
# Molecular target: T1, F508del (Homo sapiens, UniProt P13569, DEL508-508)
# T1 construct: expressed in transfected cells
# Test: Protocol 2: FRET membrane potential optical assay (VIPR), identification of correction compounds
# Assay type: cell-based
# Details: Table 3; compounds of Table 1 as modulators of CFTR activity; protocol not stated
# In short: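 Mouse NIH3T3 cells, stable F508del; cpd 16 hrs, 37° C., serum-free; pos ctrl 27° C. 16 hrs. Rinse in Krebs Ringers, dye load, then add 10 μM forskolin + 20 μM genistein with Cl^−-free (gluconate) medium; depolarization by FRET voltage dyes.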
# T1 sequence (P13569 with tags, fused parts or gaps DEL508-508): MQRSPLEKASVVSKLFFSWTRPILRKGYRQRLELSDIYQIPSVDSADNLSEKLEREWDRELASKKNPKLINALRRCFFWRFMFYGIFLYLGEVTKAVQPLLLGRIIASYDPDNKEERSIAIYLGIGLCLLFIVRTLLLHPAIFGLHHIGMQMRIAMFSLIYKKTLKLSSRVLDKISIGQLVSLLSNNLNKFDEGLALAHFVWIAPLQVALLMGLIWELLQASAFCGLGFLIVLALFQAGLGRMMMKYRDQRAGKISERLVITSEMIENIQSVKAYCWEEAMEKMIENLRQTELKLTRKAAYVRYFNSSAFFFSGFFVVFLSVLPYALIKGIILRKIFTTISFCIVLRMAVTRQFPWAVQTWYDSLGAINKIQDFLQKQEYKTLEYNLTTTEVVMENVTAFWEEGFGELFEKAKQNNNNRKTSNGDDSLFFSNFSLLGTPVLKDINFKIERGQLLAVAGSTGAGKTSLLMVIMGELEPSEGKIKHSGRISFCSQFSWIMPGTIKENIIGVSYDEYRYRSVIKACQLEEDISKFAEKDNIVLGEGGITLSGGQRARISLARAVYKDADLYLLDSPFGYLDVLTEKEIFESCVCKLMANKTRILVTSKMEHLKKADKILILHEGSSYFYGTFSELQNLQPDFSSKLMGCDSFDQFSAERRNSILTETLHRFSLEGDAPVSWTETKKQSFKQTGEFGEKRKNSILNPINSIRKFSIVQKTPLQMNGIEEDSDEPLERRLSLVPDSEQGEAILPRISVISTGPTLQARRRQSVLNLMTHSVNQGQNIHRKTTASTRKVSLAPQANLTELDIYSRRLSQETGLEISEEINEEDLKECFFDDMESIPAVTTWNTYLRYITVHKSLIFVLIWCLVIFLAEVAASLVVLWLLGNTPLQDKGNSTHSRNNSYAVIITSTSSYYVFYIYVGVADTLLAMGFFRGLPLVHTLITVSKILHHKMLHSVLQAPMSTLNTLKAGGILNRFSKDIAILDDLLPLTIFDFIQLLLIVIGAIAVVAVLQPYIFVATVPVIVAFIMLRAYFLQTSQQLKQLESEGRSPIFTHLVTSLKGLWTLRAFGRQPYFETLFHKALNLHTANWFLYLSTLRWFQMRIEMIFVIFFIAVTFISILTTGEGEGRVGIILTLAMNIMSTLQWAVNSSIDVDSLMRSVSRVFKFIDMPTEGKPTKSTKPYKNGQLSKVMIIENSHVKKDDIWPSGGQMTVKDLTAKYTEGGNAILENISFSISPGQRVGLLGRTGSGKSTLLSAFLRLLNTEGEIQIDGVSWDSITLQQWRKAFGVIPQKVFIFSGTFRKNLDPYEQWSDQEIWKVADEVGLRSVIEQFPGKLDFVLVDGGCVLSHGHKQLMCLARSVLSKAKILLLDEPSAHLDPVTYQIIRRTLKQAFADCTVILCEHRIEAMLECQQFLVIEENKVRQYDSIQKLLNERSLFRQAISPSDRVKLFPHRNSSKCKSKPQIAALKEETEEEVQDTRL
row,EC30,Compound
1,++ (“++” means between 3 uM and 10 uM),"C[C@@H]1CC[C@H](C)N1c1nc(-c2ccc(Cl)cc2)ccc1C(=O)NS(=O)(=O)c1ccc[nH]c1=O [Compound 760, 6-(4-chlorophenyl)-2-[(2S,5R)-2,5-dimethylpyrrolidin-1-yl]-N-[(2-oxo-1H-pyridin-3-yl)sulfonyl]pyridine-3-carboxamide]"
2,+++ (“+++” means <3 uM),"Cc1ccccc1-c1ccc(C(=O)NS(=O)(=O)c2cccc(N)n2)c(N2CC(C)CC2(C)C)n1 (stereo not shown) [Compound 761, N-[(6-amino-2-pyridyl)sulfonyl]-6-(o-tolyl)-2-(2,2,4-trimethylpyrrolidin-1-yl)pyridine-3-carboxamide]"
3,++ (“++” means between 3 uM and 10 uM),"COc1ccc(F)c(-c2ccc(C(=O)NS(=O)(=O)c3ccc[nH]c3=O)c(Oc3c(C)cc(C)cc3C)n2)c1 [Compound 762, 6-(2-fluoro-5-methoxy-phenyl)-N-[(2-oxo-1H-pyridin-3-yl)sulfonyl]-2-(2,4,6-trimethylphenoxy)pyridine-3-carboxamide]"
4,+++ (“+++” means <3 uM),"Cc1cc(C(=O)NS(=O)(=O)c2cccc(N)n2)c(N2CC(C)CC2(C)C)nc1-c1ccc(F)cc1 (stereo not shown) [Compound 763, N-[(6-amino-2-pyridyl)sulfonyl]-6-(4-fluorophenyl)-5-methyl-2-(2,2,4-trimethylpyrrolidin-1-yl)pyridine-3-carboxamide]"
5,+++ (“+++” means <3 uM),"CC(C)Oc1ccc(-c2ccc(C(=O)NS(=O)(=O)c3cccc(N)n3)c(N3CC[C@H](C)[C@H]3C)n2)cn1 [Compound 764, N-[(6-amino-2-pyridyl)sulfonyl]-2-[(2R,3S)-2,3-dimethylpyrrolidin-1-yl]-6-(6-isopropoxy-3-pyridyl)pyridine-3-carboxamide]"
6,++ (“++” means between 3 uM and 10 uM),"COc1ncccc1S(=O)(=O)NC(=O)C1(C)c2ccccc2CN1Cc1c(C)cc(C)cc1C (stereo not shown) [Compound 765, N-[(2-methoxy-3-pyridyl)sulfonyl]-1-methyl-2-[(2,4,6-trimethylphenyl)methyl]isoindoline-1-carboxamide]"
7,++ (“++” means between 3 uM and 10 uM),"CC(C)Oc1ccc(-c2ccc(C(=O)NS(=O)(=O)c3cccc(N)n3)c(NC(C)c3ccccc3)n2)cn1 (stereo not shown) [Compound 766, N-[(6-amino-2-pyridyl)sulfonyl]-6-(6-isopropoxy-3-pyridyl)-2-(1-phenylethylamino)pyridine-3-carboxamide]"
8,+++ (“+++” means <3 uM),"Cc1cc(C)c(Oc2nc(C(C)(C)C)ccc2C(=O)NS(=O)(=O)c2cccc(N)n2)c(C#N)c1 [Compound 767, N-[(6-amino-2-pyridyl)sulfonyl]-6-tert-butyl-2-(2-cyano-4,6-dimethyl-phenoxy)pyridine-3-carboxamide]"
9,++ (“++” means between 3 uM and 10 uM),"COc1cc(-c2ccc(C(=O)NS(=O)(=O)c3cccc(N)n3)c(Oc3c(C)cc(C)cc3C)n2)ccc1O [Compound 768, N-[(6-amino-2-pyridyl)sulfonyl]-6-(4-hydroxy-3-methoxy-phenyl)-2-(2,4,6-trimethylphenoxy)pyridine-3-carboxamide]"
10,++ (“++” means between 3 uM and 10 uM),"CC(C)Oc1ccc(-c2ccc(C(=O)NS(=O)(=O)c3ccc[nH]c3=O)c(N3[C@H](C)CC[C@@H]3C)n2)cn1 [Compound 770, 2-[(2S,5R)-2,5-dimethylpyrrolidin-1-yl]-6-(6-isopropoxy-3-pyridyl)-N-[(2-oxo-1H-pyridin-3-yl)sulfonyl]pyridine-3-carboxamide]"
11,+++ (“+++” means <3 uM),"CCCOc1cc(-c2ccc(C(=O)NS(=O)(=O)c3cccc(N)n3)c(N3[C@H](C)CC[C@@H]3C)n2)ccc1Cl [Compound 773, N-[(6-amino-2-pyridyl)sulfonyl]-6-(4-chloro-3-propoxy-phenyl)-2-[(2R,5S)-2,5-dimethylpyrrolidin-1-yl]pyridine-3-carboxamide]"
12,+++ (“+++” means <3 uM),"CC(C)Oc1ccc(-c2ccc(C(=O)NS(=O)(=O)c3ccn[nH]3)c(N3CCC[C@@H](c4ccccc4)C3)n2)cn1 [Compound 776, 6-(6-isopropoxy-3-pyridyl)-2-[(3S)-3-phenyl-1-piperidyl]-N-(1H-pyrazol-5-ylsulfonyl)pyridine-3-carboxamide]"
13,+++ (“+++” means <3 uM),"CC1CN(c2nc(-c3cncc(OCC(C)(C)C)n3)ccc2C(=O)NS(=O)(=O)c2cccc(N)n2)C(C)(C)C1 (stereo not shown) [Compound 779, N-[(6-amino-2-pyridyl)sulfonyl]-6-[6-(2,2-dimethylpropoxy)pyrazin-2-yl]-2-(2,2,4-trimethylpyrrolidin-1-yl)pyridine-3-carboxamide]"
14,+ (“+” means greater than 10 uM),"COc1cccc(-c2ccc(C(=O)NS(=O)(=O)c3ccc[nH]c3=O)c(N3[C@H](C)CC[C@@H]3C)n2)n1 [Compound 781, 2-[(2S,5R)-2,5-dimethylpyrrolidin-1-yl]-6-(6-methoxy-2-pyridyl)-N-[(2-oxo-1H-pyridin-3-yl)sulfonyl]pyridine-3-carboxamide]"
15,+++ (“+++” means <3 uM),"Cc1cc(C)c(Oc2nc(C3CCC(F)(F)CC3)ccc2C(=O)NS(=O)(=O)c2cccc(N)n2)c(C)c1 [Compound 783, N-[(6-amino-2-pyridyl)sulfonyl]-6-(4,4-difluorocyclohexyl)-2-(2,4,6-trimethylphenoxy)pyridine-3-carboxamide]"
16,+++ (“+++” means <3 uM),"Cc1cc(C)c(Oc2nc(-c3ccccc3)ccc2C(=O)NS(=O)(=O)c2ccn[nH]2)c(C)c1 [Compound 784, 6-phenyl-N-(1H-pyrazol-5-ylsulfonyl)-2-(2,4,6-trimethylphenoxy)pyridine-3-carboxamide]"
17,+++ (“+++” means <3 uM),"Cc1cc(C)c(Oc2nc(N3CCCCC3)ccc2C(=O)NS(=O)(=O)c2cccc(N)n2)c(C)c1 [Compound 785, N-[(6-amino-2-pyridyl)sulfonyl]-6-(1-piperidyl)-2-(2,4,6-trimethylphenoxy)pyridine-3-carboxamide]"
18,+ (“+” means greater than 10 uM),"Cc1cc(C)c(Oc2nc(-c3cccc(CO)c3)ccc2C(=O)NS(=O)(=O)c2cccc(N)n2)c(C)c1 [Compound 786, N-[(6-amino-2-pyridyl)sulfonyl]-6-[3-(hydroxymethyl)phenyl]-2-(2,4,6-trimethylphenoxy)pyridine-3-carboxamide]"
19,+++ (“+++” means <3 uM),"Cc1cc(C)c(Oc2nc(-c3ccc(N(C)C)nc3)ccc2C(=O)NS(=O)(=O)c2cccc(N)n2)c(C)c1 [Compound 787, N-[(6-amino-2-pyridyl)sulfonyl]-6-[6-(dimethylamino)-3-pyridyl]-2-(2,4,6-trimethylphenoxy)pyridine-3-carboxamide]"

row,Compound,EC30
1,"CC(C)COc1cc(F)cc(-c2ccc(C(=O)NS(=O)(=O)c3cccc(N)n3)c(OCC3CC3(F)F)n2)c1 (stereo not shown) [Compound 769, N-[(6-amino-2-pyridyl)sulfonyl]-2-[(2,2-difluorocyclopropyl)methoxy]-6-(3-fluoro-5-isobutoxy-phenyl)pyridine-3-carboxamide]",+++ (“+++” means <3 uM)
2,"Cc1cc(C)c(Oc2nc(-c3cc(F)cc(OCC(C)C)c3)ccc2C(=O)NS(=O)(=O)c2cccc(C#N)n2)c(C)c1 [Compound 771, N-[(6-cyano-2-pyridyl)sulfonyl]-6-(3-fluoro-5-isobutoxy-phenyl)-2-(2,4,6-trimethylphenoxy)pyridine-3-carboxamide]",+++ (“+++” means <3 uM)
3,"CC(C)COc1cc(F)cc(-c2ccc(C(=O)NS(=O)(=O)c3cccc(N)n3)c(N3CCCC3Cc3ccccc3)n2)c1 (stereo not shown) [Compound 772, N-[(6-amino-2-pyridyl)sulfonyl]-2-(2-benzylpyrrolidin-1-yl)-6-(3-fluoro-5-isobutoxy-phenyl)pyridine-3-carboxamide]",+++ (“+++” means <3 uM)
4,"COC1(C)CCN(c2nc(-c3cc(F)cc(OCC(C)C)c3)ccc2C(=O)NS(=O)(=O)c2ccn[nH]2)CC1 [Compound 774, 6-(3-fluoro-5-isobutoxy-phenyl)-2-(4-methoxy-4-methyl-1-piperidyl)-N-(1H-pyrazol-5-ylsulfonyl)pyridine-3-carboxamide]",+++ (“+++” means <3 uM)
5,"CC(C)COc1cc(F)cc(-c2ccc(C(=O)NS(=O)(=O)c3cccc(=O)[nH]3)c(N3CCC(C)(C)CC3)n2)c1 [Compound 775, 2-(4,4-dimethyl-1-piperidyl)-6-(3-fluoro-5-isobutoxy-phenyl)-N-[(6-oxo-1H-pyridin-2-yl)sulfonyl]pyridine-3-carboxamide]",+++ (“+++” means <3 uM)
6,"CC(C)COc1cccc(-c2ccc(C(=O)NS(=O)(=O)c3cccc(N)n3)c(N3CCC(C)CC3)n2)c1 [Compound 777, N-[(6-amino-2-pyridyl)sulfonyl]-6-(3-isobutoxyphenyl)-2-(4-methyl-1-piperidyl)pyridine-3-carboxamide]",+++ (“+++” means <3 uM)
7,"Cc1ccccc1Oc1nc(-c2cc(F)cc(OCC(C)C)c2)ccc1C(=O)NS(=O)(=O)c1cccc(N)n1 [Compound 778, N-[(6-amino-2-pyridyl)sulfonyl]-6-(3-fluoro-5-isobutoxy-phenyl)-2-(2-methylphenoxy)pyridine-3-carboxamide]",+++ (“+++” means <3 uM)
8,"CC(C)COc1cc(F)cc(-c2ccc(C(=O)NS(=O)(=O)c3cccc(N)n3)c(N3CCC(C(F)(F)F)C3(C)C)n2)c1 (stereo not shown) [Compound 780, N-[(6-amino-2-pyridyl)sulfonyl]-2-[2,2-dimethyl-3-(trifluoromethyl)pyrrolidin-1-yl]-6-(3-fluoro-5-isobutoxy-phenyl)pyridine-3-carboxamide]",+++ (“+++” means <3 uM)
9,"Cc1ccccc1C(C)Oc1nc(-c2cc(F)cc(OCC(C)C)c2)ccc1C(=O)NS(=O)(=O)c1cccc(N)n1 (stereo not shown) [Compound 782, N-[(6-amino-2-pyridyl)sulfonyl]-6-(3-fluoro-5-isobutoxy-phenyl)-2-[1-(o-tolyl)ethoxy]pyridine-3-carboxamide]",+++ (“+++” means <3 uM)
